Laboratory results reported in patent US10500198B2, “Bis-benzylidine piperidone proteasome inhibitor with anticancer activity” (The Johns Hopkins University, priority 2013, dated 2019).

Legend:
[1] = tested on: HaCaT; assay: Cell viability after 48-hr treatment (Table 1); assay type: cell-based; settings: 48-hr treatment; XTT assay; read-out: IC50, HaCaT
Method: (§1) Cells seeded at the concentration of 1,000 cells/well for HeLa, 5,000 cells/well for ES2 and HCT116 and 10,000-20,000 cells/well for other cell lines in 100 μL medium in 96-well plate were treated with RA series compounds at specified concentrations. […]

[2] = tested on: RPMI8226; assay: Cell viability after 48-hr treatment (Table 1); assay type: cell-based; settings: XTT assay
Method: as §1

[3] = tested on: SiHa; assay: Cell viability after 48-hr treatment (Table 1); assay type: cell-based; settings: 48-hr treatment; XTT assay; read-out: IC50, SiHa
Method: as §1

[4] = tested on: HeLa cells; assay: Drug combination index assay; assay type: cell-based, human; settings: 48 hr, read-out: IC50 (single agent, Compusyn)
Method: The combination indices and a normalized isobologram were calculated using Compusyn software (www.combosyn.com).

[5] = tested on: RPMI-8226-V10R and ANBL6-V10R; assay: Cell viability of bortezomib-resistant and parental MM lines; assay type: cell-based; settings: 48 hr treatment
Method: Actin was used as a loading control. […] In FIG. 9C-E, purified 20S proteasomes were treated for 30 min with or without compounds (1 μM) prior to the addition of the specific fluorogenic substrate for chymotryptic (9C), tryptic (9D) or PGPH (9E) hydrolytic proteasome capacities. […] DMSO was added to all samples to a final concentration of 0.1% (upper panel). The effect of DMSO is highlighted by including ubiquitin—AMC (0.5 μM) hydrolysis with 2 nM UCH37 lacking DMSO (orange, bottom panel). In FIG. 9H, purified 19S RP (500 nM) in buffer was treated with corresponding compounds 30 min at 37° C. and AMC cleavage was measured with a fluorometer for 20 min. Ubal was used as a positive control.
Cell viability was assayed using CellTiter 960 AQueous One Solution Reagent (Promega, Madison, Wis.). Cells seeded at the concentration of 1,000 cells/well for HeLa, 5,000 cells/well for ES2 and HCT116 and 10,000-20,000 cells/well for other cell lines in 100 μL medium in 96-well plate were treated with RA series compounds at specified concentrations. After the indicated periods, cells were incubated according to the manufacturer's protocol with the MTS labeling mixture for 1-2 hr and absorbance at 490 nm measured using a Benchmark Plus microplate spectrophotometer (BIO-RAD).

[6] = Tissue levels 48 hr after single i.p. dose; assay type: in vivo, mouse; settings: 48 hr after single i.p. dose of 10 mg/kg
Method: Tissue was harvested at 48 hr after single-dose intraperitoneal administration in non-tumor bearing mice. Blood was collected by cardiac puncture under anesthesia into heparinized syringes and centrifuged to obtain plasma. Tissues were rapidly dissected and snap frozen in liquid nitrogen. Samples were stored frozen at −70° C. until analysis. […] Tissue homogenates were prepared at a concentration of 200 mg/mL in PBS and further diluted 1:10 in mouse plasma before extraction using acetonitrile containing temazepam (100 ng/mL). Separation was achieved on Waters X-Terra™ C18 (50 mm×2.1 mm i.d., 3 μm) at room temperature using isocratic elution with acetonitrile/water mobile phase (70:30, v/v) containing 0.1% formic acid at a flow rate of 0.2 mL/min. […] Samples were quantitated over the assay range of 10 to 1000 ng/mL or 0.6 to 60 μg/g. […] Cmax and Tmax were the observed values from the mean data. The AUClast was calculated using the log-linear trapezoidal rule to the end of sample collection (AUClast) and extrapolated to infinity (AUC0-∞) by dividing the last quantifiable concentration by the terminal disposition rate constant (λz), which was determined from the slope of the terminal phase of the concentration-time profile. The half-life (T1/2) was determined by dividing 0.693 by λz. Relative bioavailability was calculated as follows: […]

[7] = Complete blood counts and blood chemistry of C57BL/6 mice carrying TC-1 tumor; settings: C57BL/6 mice with TC-1 tumor; nine doses every third day: RA190 40 mg/kg p.o., Bortezomib 1.5 mg/kg i.p.; mean ± SD, n = 3;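 note: blood drawn from the heart after euthanasia, cell counts read on an automated hemocytometer, heparinized plasma analyzed on an automated clinical chemistry analyzer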
[8] = Complete blood counts, blood chemistry and histopathology of healthy Balb/C mice
[9] = healthy Balb/C mice, 3 doses 40 mg/kg p.o. every third day, mean ± SD, n = 3

For Cl.N[C@@H](Cc1ccccc1)C(=O)N1CC(=Cc2ccc(Cl)c(Cl)c2)C(=O)C(=Cc2ccc(Cl)c(Cl)c2)C1 [RA190, 3,5-bis(3,4-dichlorobenzylidene)-1-(S-2-amino-3-phenyl)-piperidin-4-one-HCl salt], the IC50 [1] was greater than 2500 nM, the IC50 [2] was 100 nM and the IC50 [3] was 750 nM. For the same molecule, the IC50 [4] was 184 nM, the “efficacy against bortezomib-resistant derivative lines versus parental lines” value [5] was “equally efficacious” and the “RA190 detected in brain” value [6] was “not brain”. The “RA190 detected in kidney” value [6] was 0.61 µg/g, the “RA190 detected in liver” value [6] was 0.57 µg/g and the “RA190 detected in lung” value [6] was 0.66 µg/g. For the same molecule, the “RA190 detected in spleen” value [6] was 0.59 µg/g, the “ALBNEW (Albumin)” value [7] was 2.76 ± 0.23 and the “ALPNEW (Alkaline Phosphatase)” value [7] was 55.33 ± 6.50. For the same molecule, the “ALTNEW (Alanine Aminotransferase)” value [7] was 31.33 ± 2.30, the “AMYL (Amylase)” value [7] was 621.33 ± 127 and the “ASTNEW (Aspartate aminotransferase)” value [7] was 50.33 ± 4.93. For the same molecule, the “BA(Basophils)” value [7] was 0.023 ± 0.011, the “BUNNEW (Blood Urea Nitrogen)” value [7] was 26 ± 5.29 and the “CA (Calcium)” value [7] was 8.56 ± 0.23. The “CHOL (Cholesterol)” value [7] was 67 ± 4.58, the “CK_NEW (Creatinine Kinase)” value [7] was 131 ± 65.50 and the “CREAT (Creatinine)” value [7] was 0.46 ± 0.057. For the same molecule, the “EO (Eosinophils)” value [7] was 0.10 ± 0.01, the “GGTNEW (Gamma-Glutamyl Transferase)” value [7] was 5.33 ± 0.57 and the “GLU (Glucose)” value [7] was 170.66 ± 6.11. The “HCT(Hematocrit)” value [7] was 50.36 ± 2.45, the “HDLNEW (High Density Lipoprotein)” value [7] was 40.33 ± 4.72 and the “Hb (Hemoglobin)” value [7] was 13.26 ± 1.00. The “LDH (lactate Dehydrogenase)” value [7] was 172.06 ± 14.29, the “LY(Lymphocytes)” value [7] was 1.87 ± 0.69 and the “MCH (Mean corpuscular hemoglobin)” value [7] was 13.60 ± 0.53. For the same molecule, the “MCHC (mean corpuscular hemoglobin concentration)” value [7] was 26.33 ± 0.75, the “MCV (Mean corpuscular Volume)” value [7] was 51.66 ± 2.63 and the “MO(Monocytes)” value [7] was 0.25 ± 0.07. The “MPV (Mean Platelet Volume)” value [7] was 5.36 ± 0.06, the “NE(Neutrophils)” value [7] was 2.69 ± 0.45 and the “PLT (Platelet)” value [7] was 907 ± 45.92. For the same molecule, the “RBC (red Blood Cells)” value [7] was 9.77 ± 0.76, the “RDW (Red Blood Cell Distribution Width)” value [7] was 18.00 ± 0.52 and the “TBIL1 (Total bilirubin)” value [7] was 0.233 ± 0.057. For the same molecule, the “TPROT (Total protein)” value [7] was 4.46 ± 0.11, the “UA (Uric Acid)” value [7] was 2.86 ± 0.41 and the “WBC(White Blood Cells)” value [7] was 7.62 ± 4.17. The “ALBNEW (Albumin)” value [8, 9] was 3.03 ± 0.05, the “ALPNEW (Alkaline Phosphatase)” value [8, 9] was 84.33 ± 7.57 and the “ALTNEW (Alanine Aminotransferase)” value [8, 9] was 39.66 ± 4.04. For the same molecule, the “AMYL (Amylase)” value [8, 9] was 743 ± 29.4, the “ASTNEW (Aspartate aminotransferase)” value [8, 9] was 62.66 ± 11.01 and the “BA(Basophils)” value [8, 9] was 0.06 ± 0.07. The “BUNNEW (Blood Urea Nitrogen)” value [8, 9] was 20 ± 2.64, the “CA (Calcium)” value [8, 9] was 9 ± 0.2 and the “CHOL (Cholesterol)” value [8, 9] was 114 ± 12.12. The “CK_NEW (Creatinine Kinase)” value [8, 9] was 55.66 ± 25.48, the “CREAT (Creatinine)” value [8, 9] was 0.36 ± 0.05 and the “EO (Eosinophils)” value [8, 9] was 0.24 ± 0.23. For the same molecule, the “GGTNEW (Gamma-Glutamyl Transferase)” value [8, 9] was 4.33 ± 0.57, the “GLU (Glucose)” value [8, 9] was 175.33 ± 20.5 and the “HCT(Hematocrit)” value [8, 9] was 55.66 ± 1.70. For the same molecule, the “HDLNEW (High Density Lipoprotein)” value [8, 9] was 49 ± 5.29, the “Hb (Hemoglobin)” value [8, 9] was 14.63 ± 0.15 and the “K (Potassium)” value [8, 9] was 6.05 ± 0.21. For the same molecule, the “LDH (lactate Dehydrogenase)” value [8, 9] was 160 ± 37.51, the “LY(Lymphocytes)” value [8, 9] was 4.78 ± 1.89 and the “MCH (Mean corpuscular hemoglobin)” value [8, 9] was 14.10 ± 0.2. The “MCHC (mean corpuscular hemoglobin concentration)” value [8, 9] was 26.33 ± 0.55, the “MCV (Mean corpuscular Volume)” value [8, 9] was 53.60 ± 0.26 and the “MO(Monocytes)” value [8, 9] was 0.34 ± 0.28. For the same molecule, the “MPV (Mean Platelet Volume)” value [8, 9] was 5.06 ± 0.37, the “NE(Neutrophils)” value [8, 9] was 2.43 ± 0.94 and the “Na (Sodium)” value [8, 9] was 147.5 ± 0.70. The “PLT (Platelet)” value [8, 9] was 533 ± 61.65, the “RBC (red Blood Cells)” value [8, 9] was 10.38 ± 0.26 and the “RDW (Red Blood Cell Distribution Width)” value [8, 9] was 17.23 ± 0.30. For the same molecule, the “TBIL1 (Total bilirubin)” value [8, 9] was 0.26 ± 0.05, the “TPROT (Total protein)” value [8, 9] was 5.16 ± 0.05 and the “TRIG (Triglycerides)” value [8, 9] was 107.33 ± 22.40. For the same molecule, the “UA (Uric Acid)” value [8, 9] was 1.5 ± 0.26, the “WBC(White Blood Cells)” value [8, 9] was 7.88 ± 3.42 and the “blood chemistry and hematologic panels versus vehicle” value ([8]; three doses of 40 mg/kg p.o. every third day, euthanized on day 12) was “No significant difference”.
